Test: Evaluation of conversion rate to active form in buffer solution (Experimental Example 1)
Format: physicochemical
Settings: for Production rate of Alvocidib / Residual rate: 25 umol/L in buffer solution; for Stability in buffer solution at pH 5: pH 5, 37° C., up to 2 or 3 hours; for Conversion to Alvocidib at pH 7.4: pH 7.4, 37° C., up to 3 hours
Summary of the method: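 Prodrugs were held at 25 umol/L and 37° C in 50 mM citrate (pH 5.0, 5.5) or 50 mM phosphate (pH 6.0–7.4) buffer. Parent remaining and Alvocidib formed were quantified by HPLC at 0, 0.5, 1, 2 and 3 hours.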

## CCCN(C[C@@H]1CCCCN1)C(=O)Oc1cc(O)c2c(=O)cc(-c3ccccc3Cl)oc2c1[C@H]1CCN(C)C[C@H]1O [Example 5, 2-(2-chlorophenyl)-5-hydroxy-8-[(3S,4R)-3-hydroxy-1-methylpiperidin-4-yl]-4-oxo-4H-1-benzopyran-7-yl {[(2S)-piperidin-2-yl]methyl}propylcarbamate]
Buffer solution, 37° C.
  Efficiency of conversion to Alvocidib: higher efficiency
pH5.0, 0 hr, 37° C.
  Production rate of Alvocidib: 0.0%
  Residual rate: 98.7%
  Stability in buffer solution at pH 5: stable
  Conversion to Alvocidib at pH 7.4: rapidly converted to Alvocidib
pH5.0, 0.5 hr, 37° C.
  Production rate of Alvocidib: 0.6%
  Residual rate: 98.3%
pH5.0, 1 hr, 37° C.
  Production rate of Alvocidib: 1.1%
  Residual rate: 97.8%
pH5.0, 2 hr, 37° C.
  Production rate of Alvocidib: 2.3%
  Residual rate: 96.7%
pH5.0, 3 hr, 37° C.
  Production rate of Alvocidib: 3.4%
  Residual rate: 95.8%
pH5.5, 0 hr, 37° C.
  Production rate of Alvocidib: 0.0%
  Residual rate: 98.3%
pH5.5, 0.5 hr, 37° C.
  Production rate of Alvocidib: 1.2%
  Residual rate: 97.2%
pH5.5, 1 hr, 37° C.
  Production rate of Alvocidib: 2.1%
  Residual rate: 96.4%
pH5.5, 2 hr, 37° C.
  Production rate of Alvocidib: 3.9%
  Residual rate: 94.5%
pH5.5, 3 hr, 37° C.
  Production rate of Alvocidib: 5.7%
  Residual rate: 92.7%
pH6.0, 0 hr, 37° C.
  Production rate of Alvocidib: 0.0%
  Residual rate: 98.7%
pH6.0, 0.5 hr, 37° C.
  Production rate of Alvocidib: 3.6%
  Residual rate: 95.2%
pH6.0, 1 hr, 37° C.
  Production rate of Alvocidib: 6.6%
  Residual rate: 92.2%
pH6.0, 2 hr, 37° C.
  Production rate of Alvocidib: 12.8%
  Residual rate: 85.7%
pH6.0, 3 hr, 37° C.
  Production rate of Alvocidib: 18.6%
  Residual rate: 79.8%
pH6.5, 0 hr, 37° C.
  Production rate of Alvocidib: 0.0%
  Residual rate: 98.4%
pH6.5, 0.5 hr, 37° C.
  Production rate of Alvocidib: 9.5%
  Residual rate: 88.9%
pH6.5, 1 hr, 37° C.
  Production rate of Alvocidib: 17.1%
  Residual rate: 80.9%
pH6.5, 2 hr, 37° C.
  Production rate of Alvocidib: 32.1%
  Residual rate: 65.5%
pH6.5, 3 hr, 37° C.
  Production rate of Alvocidib: 44.2%
  Residual rate: 52.6%
pH7.0, 0 hr, 37° C.
  Production rate of Alvocidib: 0.0%
  Residual rate: 98.4%
pH7.0, 0.5 hr, 37° C.
  Production rate of Alvocidib: 25.0%
  Residual rate: 72.7%
pH7.0, 1 hr, 37° C.
  Production rate of Alvocidib: 41.9%
  Residual rate: 55.0%
pH7.0, 2 hr, 37° C.
  Production rate of Alvocidib: 66.7%
  Residual rate: 28.7%
pH7.0, 3 hr, 37° C.
  Production rate of Alvocidib: 79.9%
  Residual rate: 15.0%
pH7.4, 0 hr, 37° C.
  Production rate of Alvocidib: 0.0%
  Residual rate: 98.7%
pH7.4, 0.5 hr, 37° C.
  Production rate of Alvocidib: 47.5%
  Residual rate: 49.4%
pH7.4, 1 hr, 37° C.
  Production rate of Alvocidib: 69.8%
  Residual rate: 25.9%
pH7.4, 2 hr, 37° C.
  Production rate of Alvocidib: 88.9%
  Residual rate: 5.9%
pH7.4, 3 hr, 37° C.
  Production rate of Alvocidib: 93.2%
  Residual rate: 1.5%

## CCCN(C[C@H]1CCCCN1)C(=O)Oc1cc(O)c2c(=O)cc(-c3ccccc3Cl)oc2c1[C@H]1CCN(C)C[C@H]1O [Example 6, 2-(2-chlorophenyl)-5-hydroxy-8-[(3S,4R)-3-hydroxy-1-methylpiperidin-4-yl]-4-oxo-4H-1-benzopyran-7-yl {[(2R)-piperidin-2-yl]methyl}propylcarbamate]
pH5.0, 0 hr, 37° C.
  Production rate of Alvocidib: 0.5%
  Residual rate: 99.3%
  Stability in buffer solution at pH 5: stable
  Conversion to Alvocidib at pH 7.4: rapidly converted to Alvocidib
pH5.0, 0.5 hr, 37° C.
  Production rate of Alvocidib: 0.9%
  Residual rate: 99.1%
pH5.0, 1 hr, 37° C.
  Production rate of Alvocidib: 1.3%
  Residual rate: 98.7%
pH5.0, 2 hr, 37° C.
  Production rate of Alvocidib: 2.0%
  Residual rate: 97.8%
pH5.0, 3 hr, 37° C.
  Production rate of Alvocidib: 2.6%
  Residual rate: 96.8%
pH5.5, 0 hr, 37° C.
  Production rate of Alvocidib: 0.5%
  Residual rate: 99.5%
pH5.5, 0.5 hr, 37° C.
  Production rate of Alvocidib: 1.6%
  Residual rate: 98.1%
pH5.5, 1 hr, 37° C.
  Production rate of Alvocidib: 2.5%
  Residual rate: 97.0%
pH5.5, 2 hr, 37° C.
  Production rate of Alvocidib: 4.3%
  Residual rate: 94.2%
pH5.5, 3 hr, 37° C.
  Production rate of Alvocidib: 6.2%
  Residual rate: 91.9%
pH6.0, 0 hr, 37° C.
  Production rate of Alvocidib: 0.6%
  Residual rate: 99.4%
pH6.0, 0.5 hr, 37° C.
  Production rate of Alvocidib: 4.0%
  Residual rate: 94.8%
pH6.0, 1 hr, 37° C.
  Production rate of Alvocidib: 7.1%
  Residual rate: 90.7%
pH6.0, 2 hr, 37° C.
  Production rate of Alvocidib: 13.2%
  Residual rate: 82.5%
pH6.0, 3 hr, 37° C.
  Production rate of Alvocidib: 18.6%
  Residual rate: 75.2%
pH6.5, 0 hr, 37° C.
  Production rate of Alvocidib: 0.6%
  Residual rate: 99.4%
pH6.5, 0.5 hr, 37° C.
  Production rate of Alvocidib: 10.1%
  Residual rate: 86.6%
pH6.5, 1 hr, 37° C.
  Production rate of Alvocidib: 18.6%
  Residual rate: 75.3%
pH6.5, 2 hr, 37° C.
  Production rate of Alvocidib: 31.9%
  Residual rate: 56.9%
pH6.5, 3 hr, 37° C.
  Production rate of Alvocidib: 42.8%
  Residual rate: 42.3%
pH7.0, 0 hr, 37° C.
  Production rate of Alvocidib: 0.7%
  Residual rate: 99.3%
pH7.0, 0.5 hr, 37° C.
  Production rate of Alvocidib: 27.0%
  Residual rate: 63.7%
pH7.0, 1 hr, 37° C.
  Production rate of Alvocidib: 44.4%
  Residual rate: 40.4%
pH7.0, 2 hr, 37° C.
  Production rate of Alvocidib: 62.8%
  Residual rate: 16.1%
pH7.0, 3 hr, 37° C.
  Production rate of Alvocidib: 69.8%
  Residual rate: 6.8%
pH7.4, 0 hr, 37° C.
  Production rate of Alvocidib: 0.9%
  Residual rate: 99.1%
pH7.4, 0.5 hr, 37° C.
  Production rate of Alvocidib: 47.8%
  Residual rate: 36.3%
pH7.4, 1 hr, 37° C.
  Production rate of Alvocidib: 65.7%
  Residual rate: 12.7%
pH7.4, 2 hr, 37° C.
  Production rate of Alvocidib: 73.6%
  Residual rate: 2.7%
pH7.4, 3 hr, 37° C.
  Production rate of Alvocidib: 75.3%
  Residual rate: 0.7%
